From patent publication US20060069132A1, “Azolecarboxamide herbicides” (priority 2004, published 2006)

Key:
barnyardgrass [1] = experiment: Test B pre-/postemergence herbicide test; assay type: in vivo, Echinochloa crus-galli; conditions: for Plant response rating, Barnyardgrass: preemergence; for Barnyardgrass plant response rating: postemergence, visual rating, scale 0 (no effect) to 100 (complete control)
Summary of the method: (§1)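 Greenhouse pot assay with simultaneous preemergence (treated seed) and postemergence (2–18 cm seedlings) applications of surfactant-containing, non-phytotoxic solvent formulations. Response scored visually 13–15 days later on a 0–100 scale, 100 meaning complete control.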

Surinam grass = experiment: Test B pre-/postemergence herbicide test; assay type: in vivo, Urochloa decumbens; conditions: for Plant response rating, Surinam Grass: preemergence; for Surinam Grass plant response rating: postemergence, visual rating, scale 0 (no effect) to 100 (complete control)
Summary of the method: (§2)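 Plants compared with untreated controls 13–15 days post-treatment and given a visual 0–100 injury score. Applications: preemergence to seeds; postemergence at 1- to 4-leaf (2–18 cm); paddy species flooded, 2-leaf stage. Vehicle non-phytotoxic, surfactant included.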

cocklebur = experiment: Test B pre-/postemergence herbicide test; assay type: in vivo, Xanthium strumarium; conditions: for Plant response rating, Cocklebur: preemergence; for Cocklebur plant response rating: postemergence, visual rating, scale 0 (no effect) to 100 (complete control)
Summary of the method: as §1

corn = experiment: Test B pre-/postemergence herbicide test; assay type: in vivo, Zea mays; conditions: for Plant response rating, Corn: preemergence; for Corn plant response rating: postemergence, visual rating, scale 0 (no effect) to 100 (complete control)
Summary of the method: as §2

large crabgrass = experiment: Test B pre-/postemergence herbicide test; assay type: in vivo, Digitaria sanguinalis; conditions: for Plant response rating, Crabgrass, Large: preemergence; for Crabgrass, Large plant response rating: postemergence, visual rating, scale 0 (no effect) to 100 (complete control)
Summary of the method: as §2

giant foxtail = experiment: Test B pre-/postemergence herbicide test; assay type: in vivo, Setaria faberi; conditions: for Plant response rating, Foxtail, Giant: preemergence; for Foxtail, Giant plant response rating: postemergence, visual rating, scale 0 (no effect) to 100 (complete control)
Summary of the method: as §2

lambsquarters = experiment: Test B pre-/postemergence herbicide test; assay type: in vivo, Chenopodium album; conditions: for Plant response rating, Lambsquarters: preemergence; for Lambsquarters plant response rating: postemergence, visual rating, scale 0 (no effect) to 100 (complete control)
Summary of the method: as §2

morningglory = experiment: Test B pre-/postemergence herbicide test; assay type: in vivo, Ipomoea coccinea; conditions: for Plant response rating, Morningglory: preemergence; for Morningglory plant response rating: postemergence, visual rating, scale 0 (no effect) to 100 (complete control)
Summary of the method: as §1

pigweed = experiment: Test B pre-/postemergence herbicide test; assay type: in vivo, Amaranthus retroflexus; conditions: for Plant response rating, Pigweed: preemergence; for Pigweed plant response rating: postemergence, visual rating, scale 0 (no effect) to 100 (complete control)
Summary of the method: as §2

rice [2] = experiment: Test B pre-/postemergence herbicide test; assay type: in vivo, Oryza sativa; conditions: preemergence
Summary of the method: as §1

velvetleaf = experiment: Test B pre-/postemergence herbicide test; assay type: in vivo, Abutilon theophrasti; conditions: for Plant response rating, Velvetleaf: preemergence; for Velvetleaf plant response rating: postemergence, visual rating, scale 0 (no effect) to 100 (complete control)
Summary of the method: as §2

blackgrass = experiment: Test B postemergence herbicide test; assay type: in vivo, Alopecurus myosuroides; conditions: postemergence, visual rating, scale 0 (no effect) to 100 (complete control)
Summary of the method: (§3)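 Greenhouse test; postemergence application to plants at 1–4 leaves (2–18 cm); paddy species at 2 leaves; evaluated visually vs controls at 13–15 days; scale 0–100 (100 = complete control).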

wheat = experiment: Test B postemergence herbicide test; assay type: in vivo, Triticum aestivum; design: key to Wheat plant response rating: 0 = no effect, 100 = complete control; conditions: postemergence, 500 g ai/ha; visual rating, scale 0 (no effect) to 100 (complete control)
Summary of the method: (§4)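 Scale 0–100: zero equals no visible effect, 100 complete control, judged by eye relative to controls. Timing: 13 to 15 days in greenhouse post-treatment. Growth stage at spraying: two leaves (paddy) or one to four leaves, 2–18 cm (postemergence).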

wild oat = experiment: Test B postemergence herbicide test; assay type: in vivo, Avena fatua; conditions: postemergence, visual rating, scale 0 (no effect) to 100 (complete control)
Summary of the method: as §4

rice [3] = experiment: Test B flooded paddy test; assay type: in vivo, Oryza sativa; conditions: 1000 g ai/ha, visual rating, scale 0 to 100 (0 no effect, 100 complete control), 13 to 15 days
Summary of the method: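 Formulated test chemicals went onto postemergence plants measuring 2 to 18 cm, at one to four leaves. For the paddy assay, species had reached two leaves. Scoring took place 13–15 days later by eye, relative to untreated plants, using 0 for no effect up to 100 for full control.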

[4] = system: small flower umbrella sedge; experiment: Test B flooded paddy test; assay type: in vivo, Cyperus difformis; conditions: 1000 g ai/ha, visual rating, scale 0 to 100 (0 no effect, 100 complete control), 13 to 15 days
Summary of the method: as §3

ducksalad [5] = experiment: Test B flooded paddy test; assay type: in vivo, Heteranthera limosa; conditions: 1000 g ai/ha, visual rating, scale 0 to 100 (0 no effect, 100 complete control), 13 to 15 days
Summary of the method: as §3

barnyardgrass [6] = experiment: Test B flooded paddy test; assay type: in vivo, Echinochloa crus-galli; conditions: 1000 g ai/ha, visual rating, scale 0 to 100 (0 no effect, 100 complete control), 13 to 15 days
Summary of the method: as §3

rice [7] = experiment: Test C flooded paddy test; assay type: in vivo, Oryza sativa
Summary of the method: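 Postemergence sprays applied to plants 2 to 18 cm tall (1- to 4-leaf stage); paddy species grown to 2-leaf stage under flooding. After 12 to 14 days in greenhouse, visual rating versus untreated controls on 0–100 scale (0 no effect, 100 complete control).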

[8] = system: smallflower umbrella sedge; experiment: Test C flooded paddy test; assay type: in vivo, Cyperus difformis
ducksalad [9] = experiment: Test C flooded paddy test; assay type: in vivo, Heteranthera limosa
barnyardgrass [10] = experiment: Test C flooded paddy test; assay type: in vivo, Echinochloa crus-galli
Summary of the method: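 Scoring by eye, 12–14 days post-treatment, greenhouse-held plants vs. controls; 0 no effect, 100 complete control. Sprayed at 1–4 leaves (2–18 cm); paddy barnyardgrass at 2 leaves, flooded.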

[11] = 500 g ai/ha, visual rating 0-100, 0 no effect, 100 complete control
[12] = 125 g ai/ha, 0 to 100 scale, 0 is no effect, 100 is complete control
[13] = 62 g ai/ha, scale 0 to 100 (0 no effect, 100 complete control)
[14] = 125 g ai/ha, scale 0 to 100 (0 no effect, 100 complete control)
[15] = 250 g ai/ha, scale of 0 to 100, 0 is no effect, 100 is complete control
[16] = 500 g ai/ha, visual rating after 12 to 14 days, scale 0 to 100 (0 no effect, 100 complete control)

CCn1nc(C(C)(C)C)cc1C(=O)Nc1cc(C(=O)NCCOC)ccn1 [Compound 161]
Plant response rating, Barnyardgrass (barnyardgrass [1]; [11]): 100 | Barnyardgrass plant response rating (barnyardgrass [1]; 125 g ai/ha): 10 | Barnyardgrass plant response rating (barnyardgrass [1]; 500 g ai/ha): 10 | Plant response rating, Barnyardgrass (barnyardgrass [1]; [12]): 50 | Plant response rating, Surinam Grass (Surinam grass; [11]): 60 | Surinam Grass plant response rating (Surinam grass; 125 g ai/ha): 20 | Surinam Grass plant response rating (Surinam grass; 500 g ai/ha): 20 | Plant response rating, Surinam Grass (Surinam grass; [12]): 10 | Plant response rating, Cocklebur (cocklebur; [11]): 0 | Cocklebur plant response rating (cocklebur; 125 g ai/ha): 20 | Cocklebur plant response rating (cocklebur; 500 g ai/ha): 30 | Plant response rating, Cocklebur (cocklebur; [12]): 0 | Plant response rating, Corn (corn; [11]): 10 | Corn plant response rating (corn; 125 g ai/ha): 0 | Corn plant response rating (corn; 500 g ai/ha): 0 | Plant response rating, Corn (corn; [12]): 0 | Plant response rating, Crabgrass, Large (large crabgrass; [11]): 100 | Crabgrass, Large plant response rating (large crabgrass; 125 g ai/ha): 0 | Crabgrass, Large plant response rating (large crabgrass; 500 g ai/ha): 10 | Plant response rating, Crabgrass, Large (large crabgrass; [12]): 80 | Plant response rating, Foxtail, Giant (giant foxtail; [11]): 100 | Foxtail, Giant plant response rating (giant foxtail; 125 g ai/ha): 20 | Foxtail, Giant plant response rating (giant foxtail; 500 g ai/ha): 30 | Plant response rating, Foxtail, Giant (giant foxtail; [12]): 20 | Plant response rating, Lambsquarters (lambsquarters; [11]): 100 | Lambsquarters plant response rating (lambsquarters; 125 g ai/ha): 70 | Lambsquarters plant response rating (lambsquarters; 500 g ai/ha): 70 | Plant response rating, Lambsquarters (lambsquarters; [12]): 100 | Plant response rating, Morningglory (morningglory; [11]): 40 | Morningglory plant response rating (morningglory; 125 g ai/ha): 20 | Morningglory plant response rating (morningglory; 500 g ai/ha): 20 | Plant response rating, Morningglory (morningglory; [12]): 10 | Plant response rating, Pigweed (pigweed; [11]): 100 | Pigweed plant response rating (pigweed; 125 g ai/ha): 20 | Pigweed plant response rating (pigweed; 500 g ai/ha): 60 | Plant response rating, Pigweed (pigweed; [12]): 100 | Plant response rating, Rice (rice [2]; [11]): 40 | Plant response rating, Rice (rice [2]; [12]): 0 | Plant response rating, Velvetleaf (velvetleaf; [11]): 70 | Velvetleaf plant response rating (velvetleaf; 125 g ai/ha): 20 | Velvetleaf plant response rating (velvetleaf; 500 g ai/ha): 50 | Plant response rating, Velvetleaf (velvetleaf; [12]): 20 | Blackgrass plant response rating (blackgrass; 125 g ai/ha): 40 | Blackgrass plant response rating (blackgrass; 500 g ai/ha): 40 | Wheat plant response rating (wheat): 10 | Oat, Wild plant response rating (wild oat; 125 g ai/ha): 30 | Oat, Wild plant response rating (wild oat; 500 g ai/ha): 40 | Rice plant response rating (rice [3]): 40 | Sedge, Umbrella plant response rating [4]: 60 | Ducksalad plant response rating (ducksalad [5]): 80 | Barnyardgrass plant response rating (barnyardgrass [6]): 80 | Rice plant response rating (rice [7]; [13]): 0 | Rice plant response rating (rice [7]; [14]): 10 | Rice plant response rating (rice [7]; [15]): 60 | Plant response rating, Rice (rice [7]; [16]): 65 | Sedge, Umbrella plant response rating [8, 13]: 0 | Sedge, Umbrella plant response rating [8, 14]: 0 | Sedge, Umbrella plant response rating [8, 15]: 25 | Plant response rating, Sedge, Umbrella [8, 16]: 40 | Ducksalad plant response rating (ducksalad [9]; [13]): 30 | Ducksalad plant response rating (ducksalad [9]; [14]): 65 | Ducksalad plant response rating (ducksalad [9]; [15]): 80 | Plant response rating, Ducksalad (ducksalad [9]; [16]): 90 | Barnyardgrass plant response rating (barnyardgrass [10]; [13]): 0 | Barnyardgrass plant response rating (barnyardgrass [10]; 125 g ai/ha, scale of 0 to 100, 0 is no effect, 100 is complete control): 0 | Barnyardgrass plant response rating (barnyardgrass [10]; [15]): 30 | Plant response rating, Barnyardgrass (barnyardgrass [10]; [16]): 75
